Patent US20260234150A1, “COMPOUND FOR INHIBITING NLRP3, PREPARATION METHOD, AND USE” (DOVETREE MEDICINES UNUS, INC., priority 2023, published 2026)
Read-outs that look alike come from different tables or passages of the source.

How the values were obtained:
[1] = Pharmacokinetic evaluation in rats; type: in vivo; conditions: rat, plasma, SD male rats
Description: Purpose: The test animals were SD male rats. The LC-MS/MS method was used to quantitatively determine the drug concentration in the plasma of rats at different time points after intravenous injection or oral administration of the test compound to evaluate the pharmacokinetic characteristics of the test drug in rats.
SD rats (male, 160-300 g, 5-10 weeks old, Shanghai Xipu-Bikai Experimental Animal Co., Ltd.)
The clear solution of the test compound was injected into SD rats via the tail vein (without fasting) (vehicle: 5% DMSO/10% Solutol/85% Saline), and the clear solution of the test compound was administered to SD rats by gavage (fasting for 10-14 h, free access to water) (vehicle: 5% DMSO/10% Solutol/85% Saline). For intravenous administration, blood was collected from the jugular vein at 0.033, 0.083, 0.25, 0.5, 1, 2, 4, 8, and 24 hrs after administration, placed in an EDTA-K2 anticoagulant tube (Jiangsu Kangjian Medical Supplies Co., Ltd.), mixed, and centrifuged at 2-8° C., 6800 g for 6 minutes to obtain plasma; for oral gavage administration, blood was collected from the jugular vein at 0.083, 0.25, 0.5, 1, 2, 4, 6, 8, and 24 hrs after administration, placed in an EDTA-K2 anticoagulant tube (Jiangsu Kangjian Medical Supplies Co., Ltd.), mixed, and centrifuged at 2-8° C., 6800 g for 6 minutes to obtain plasma. The plasma concentration was determined by LC-MS/MS, and the relevant pharmacokinetic parameters were calculated by the non-compartmental linear logarithmic trapezoidal method using Phoenix WinNonlinTM Version 7.0 (Pharsight, USA) pharmacokinetic software. The compounds of the present disclosure have good pharmacokinetic characteristics in rats.

hERG ion channel = molecular target: T1, hERG ion channel (Homo sapiens, UniProt Q12809); assay: hERG ion channel inhibition, manual patch clamp in HEK293 cells; type: cell-based; conditions: HEK293 cells stably expressing hERG, read-out: hERG(IC50, manupatch)
T1 construct: host or cells: HEK293
Description: This experiment used manual patch clamp electrophysiology to detect the inhibitory effect of compounds on hERG ion channels, and evaluated cardiac safety based on the single concentration inhibition rate or IC50 size of the compounds.
The cells used in this experiment are HEK293 cell lines transfected with hERG cDNA and stably expressing hERG channels (#60187, provided by BPS, P3-P23 generations are used for experimental research). Cells were cultured in a medium containing the following components: MEM medium, 10% (v/v) inactivated fetal bovine serum, 1 mM sodium pyruvate, […] geneticin, 0.1 mM non-essential amino acids, and 100 U penicillin-streptomycin. HEK293 hERG cells were grown in culture flasks containing the above culture medium and cultured in an incubator at 37° C. and 5% CO2. […]
The electrophysiological experiments were performed by a manual patch clamp system (HEKAEPC-10 signal amplifier and digital conversion system, purchased from HEKA Electronics, Germany) to record the whole-cell current. […] After the hERG current recorded in the above steps reaches stability under continuous perfusion of extracellular fluid in the recording tank, different concentrations of the test compound can be perfused until the inhibitory effect of the drug on the hERG current reaches a stable state. […]

T1 sequence (Q12809 whole entry): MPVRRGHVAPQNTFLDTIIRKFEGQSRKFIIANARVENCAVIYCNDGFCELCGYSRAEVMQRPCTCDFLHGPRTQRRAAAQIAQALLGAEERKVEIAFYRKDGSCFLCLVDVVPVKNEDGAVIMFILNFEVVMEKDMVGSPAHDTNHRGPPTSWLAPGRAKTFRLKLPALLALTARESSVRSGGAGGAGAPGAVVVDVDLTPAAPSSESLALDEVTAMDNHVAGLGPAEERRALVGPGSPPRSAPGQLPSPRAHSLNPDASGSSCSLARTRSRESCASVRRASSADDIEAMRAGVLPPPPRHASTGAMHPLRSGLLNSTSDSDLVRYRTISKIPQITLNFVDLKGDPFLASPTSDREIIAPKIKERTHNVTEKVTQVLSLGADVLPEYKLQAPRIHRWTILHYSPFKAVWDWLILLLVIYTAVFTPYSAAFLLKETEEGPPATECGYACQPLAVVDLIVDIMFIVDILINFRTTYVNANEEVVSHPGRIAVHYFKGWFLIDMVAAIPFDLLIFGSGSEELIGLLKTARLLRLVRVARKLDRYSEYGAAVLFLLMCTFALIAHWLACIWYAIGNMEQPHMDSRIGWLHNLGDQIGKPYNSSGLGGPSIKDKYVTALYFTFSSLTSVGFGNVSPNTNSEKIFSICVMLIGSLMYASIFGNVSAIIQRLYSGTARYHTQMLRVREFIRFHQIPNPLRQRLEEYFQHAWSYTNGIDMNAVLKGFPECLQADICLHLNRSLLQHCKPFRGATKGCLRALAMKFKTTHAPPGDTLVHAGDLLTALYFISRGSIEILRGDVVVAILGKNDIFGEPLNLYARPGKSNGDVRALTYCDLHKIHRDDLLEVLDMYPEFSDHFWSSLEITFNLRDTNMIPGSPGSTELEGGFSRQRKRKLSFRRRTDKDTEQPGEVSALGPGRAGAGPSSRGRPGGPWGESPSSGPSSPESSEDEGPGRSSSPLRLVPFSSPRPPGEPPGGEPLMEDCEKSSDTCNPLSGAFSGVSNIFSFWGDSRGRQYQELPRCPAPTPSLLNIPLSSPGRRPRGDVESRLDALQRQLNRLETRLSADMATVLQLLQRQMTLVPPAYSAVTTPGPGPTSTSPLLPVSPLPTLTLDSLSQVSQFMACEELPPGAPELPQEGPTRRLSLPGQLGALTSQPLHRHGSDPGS

CC(=O)N1CCOC[C@H]1CNc1nc2nc(-c3c(C)cc(C(F)(F)F)cc3O)ccc2o1 [Compound 111] gave a clearance ([1]; 1 mg/kg, Dosage IV/PO 1/3 mg/kg) of 5.78 mL/min/kg, a Vd ([1]; 1 mg/kg, Dosage IV/PO 1/3 mg/kg, read-out: Vdss) of 1.02 L/kg and a Cmax ([1]; Dosage IV/PO 1/3 mg/kg) of 1390 ng/mL. For the same compound, the bioavailability ([1]; Dosage IV/PO 1/3 mg/kg) was 94%, the AUC(0-t) ([1]; IV 1 mg/kg, read-out: AUC0-last IV) was 2880 ng·h/mL and the half-life ([1]; IV 1 mg/kg, read-out: T1/2 (IV, h) (converted)) was 3.36 h. For the same compound, the AUC(0-t) ([1]; PO 3 mg/kg, read-out: AUC0-last PO) was 8120 ng·h/mL and the IC50 (hERG ion channel) was > 30 µM.
